The target of assay [1] is Cyclin-dependent kinase 6 (Homo sapiens, UniProt Q00534).
The target of assay [2] is Casein kinase I isoform delta (Homo sapiens, UniProt P48730).
Assay [3] deals with T1, dCTP pyrophosphatase 1 (Homo sapiens, UniProt Q9H773).
T1 sequence (Q9H773 whole entry): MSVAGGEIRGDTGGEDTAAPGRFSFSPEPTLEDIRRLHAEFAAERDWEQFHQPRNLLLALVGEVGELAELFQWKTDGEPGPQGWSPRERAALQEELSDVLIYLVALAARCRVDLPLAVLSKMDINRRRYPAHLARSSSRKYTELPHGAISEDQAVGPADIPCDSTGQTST

In assay [4] the target is Tyrosine-protein kinase Fer (Homo sapiens, UniProt P16591).
Assay [5] has as its target MAP/microtubule affinity-regulating kinase 3 (Homo sapiens, UniProt P27448).
The target in assay [6] is T2, RNA cytidine acetyltransferase (Homo sapiens, UniProt Q9H0A0).
T2 sequence (Q9H0A0 whole entry): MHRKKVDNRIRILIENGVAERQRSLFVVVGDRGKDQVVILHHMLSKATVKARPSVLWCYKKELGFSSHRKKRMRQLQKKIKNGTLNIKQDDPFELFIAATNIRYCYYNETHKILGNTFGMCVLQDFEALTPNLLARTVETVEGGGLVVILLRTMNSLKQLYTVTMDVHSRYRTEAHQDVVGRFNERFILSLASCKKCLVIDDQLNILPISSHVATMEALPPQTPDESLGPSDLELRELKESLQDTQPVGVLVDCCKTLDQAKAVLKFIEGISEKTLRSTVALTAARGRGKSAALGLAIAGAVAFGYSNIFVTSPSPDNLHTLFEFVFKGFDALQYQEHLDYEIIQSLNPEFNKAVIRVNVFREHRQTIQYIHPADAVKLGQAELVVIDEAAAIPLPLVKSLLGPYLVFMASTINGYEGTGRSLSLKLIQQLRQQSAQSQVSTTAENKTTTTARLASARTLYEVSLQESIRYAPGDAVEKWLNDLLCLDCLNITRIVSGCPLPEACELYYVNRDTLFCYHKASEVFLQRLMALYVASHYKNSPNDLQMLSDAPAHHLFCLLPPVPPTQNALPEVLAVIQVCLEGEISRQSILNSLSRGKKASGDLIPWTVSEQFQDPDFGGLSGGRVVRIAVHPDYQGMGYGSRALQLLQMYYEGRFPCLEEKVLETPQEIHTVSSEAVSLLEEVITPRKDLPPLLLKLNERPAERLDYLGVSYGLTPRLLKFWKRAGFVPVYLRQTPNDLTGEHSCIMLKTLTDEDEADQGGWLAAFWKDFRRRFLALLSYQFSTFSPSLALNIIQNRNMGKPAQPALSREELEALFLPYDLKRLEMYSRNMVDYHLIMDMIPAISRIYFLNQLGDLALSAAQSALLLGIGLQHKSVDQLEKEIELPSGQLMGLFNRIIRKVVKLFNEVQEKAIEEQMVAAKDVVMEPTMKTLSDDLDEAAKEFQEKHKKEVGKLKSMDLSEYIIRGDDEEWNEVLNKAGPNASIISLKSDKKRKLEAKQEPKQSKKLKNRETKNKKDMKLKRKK

For assay [7], the target named is Platelet-derived growth factor receptor beta (Homo sapiens, UniProt P09619).
In assay [8] the target is T3, Septin-9 (Homo sapiens, UniProt Q9UHD8).
T3 sequence (Q9UHD8 whole entry): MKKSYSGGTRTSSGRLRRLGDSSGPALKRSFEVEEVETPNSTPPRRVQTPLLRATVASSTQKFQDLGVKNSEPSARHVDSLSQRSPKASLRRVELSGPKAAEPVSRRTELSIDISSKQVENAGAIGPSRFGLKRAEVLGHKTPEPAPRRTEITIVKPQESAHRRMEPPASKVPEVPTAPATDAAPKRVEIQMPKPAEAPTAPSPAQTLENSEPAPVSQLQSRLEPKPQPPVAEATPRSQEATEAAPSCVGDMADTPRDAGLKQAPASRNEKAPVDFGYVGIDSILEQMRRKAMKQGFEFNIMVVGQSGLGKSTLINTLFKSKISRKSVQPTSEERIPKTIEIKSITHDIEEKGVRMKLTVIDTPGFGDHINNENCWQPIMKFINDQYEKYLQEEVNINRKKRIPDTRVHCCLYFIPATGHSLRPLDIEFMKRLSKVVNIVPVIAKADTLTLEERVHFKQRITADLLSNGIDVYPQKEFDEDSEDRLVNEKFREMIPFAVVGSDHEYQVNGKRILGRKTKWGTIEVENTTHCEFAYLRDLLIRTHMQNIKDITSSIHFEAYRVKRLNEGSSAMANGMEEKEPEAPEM

Assay [9] deals with Structural maintenance of chromosomes protein 2 (Homo sapiens, UniProt O95347).
The target in assay [10] is T4, Succinate--CoA ligase [ADP-forming] subunit beta, mitochondrial (Homo sapiens, UniProt Q9P2R7).
T4 sequence (Q9P2R7 whole entry): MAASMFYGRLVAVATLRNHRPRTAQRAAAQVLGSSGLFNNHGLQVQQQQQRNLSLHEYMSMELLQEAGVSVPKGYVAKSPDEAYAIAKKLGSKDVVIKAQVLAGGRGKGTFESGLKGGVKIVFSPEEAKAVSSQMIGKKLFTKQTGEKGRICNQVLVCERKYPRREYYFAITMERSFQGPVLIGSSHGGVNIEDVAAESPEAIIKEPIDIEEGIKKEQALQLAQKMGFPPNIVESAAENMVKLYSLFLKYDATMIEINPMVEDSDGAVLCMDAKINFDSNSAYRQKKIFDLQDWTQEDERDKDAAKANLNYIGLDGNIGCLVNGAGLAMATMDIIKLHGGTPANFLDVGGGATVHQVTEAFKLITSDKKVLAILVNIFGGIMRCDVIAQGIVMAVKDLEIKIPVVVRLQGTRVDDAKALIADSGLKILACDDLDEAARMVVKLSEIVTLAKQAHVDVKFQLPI

For assay [11], the target named is Inosine-5'-monophosphate dehydrogenase 2 (Homo sapiens, UniProt P12268).

As a reminder, the Kd is the concentration at which binding is half-saturated.

Active and inactive are the calls of the source.
Further: in the data inactive means no Kd found up to 30 µM.

Sequence of Platelet-derived growth factor receptor beta (P09619 whole entry): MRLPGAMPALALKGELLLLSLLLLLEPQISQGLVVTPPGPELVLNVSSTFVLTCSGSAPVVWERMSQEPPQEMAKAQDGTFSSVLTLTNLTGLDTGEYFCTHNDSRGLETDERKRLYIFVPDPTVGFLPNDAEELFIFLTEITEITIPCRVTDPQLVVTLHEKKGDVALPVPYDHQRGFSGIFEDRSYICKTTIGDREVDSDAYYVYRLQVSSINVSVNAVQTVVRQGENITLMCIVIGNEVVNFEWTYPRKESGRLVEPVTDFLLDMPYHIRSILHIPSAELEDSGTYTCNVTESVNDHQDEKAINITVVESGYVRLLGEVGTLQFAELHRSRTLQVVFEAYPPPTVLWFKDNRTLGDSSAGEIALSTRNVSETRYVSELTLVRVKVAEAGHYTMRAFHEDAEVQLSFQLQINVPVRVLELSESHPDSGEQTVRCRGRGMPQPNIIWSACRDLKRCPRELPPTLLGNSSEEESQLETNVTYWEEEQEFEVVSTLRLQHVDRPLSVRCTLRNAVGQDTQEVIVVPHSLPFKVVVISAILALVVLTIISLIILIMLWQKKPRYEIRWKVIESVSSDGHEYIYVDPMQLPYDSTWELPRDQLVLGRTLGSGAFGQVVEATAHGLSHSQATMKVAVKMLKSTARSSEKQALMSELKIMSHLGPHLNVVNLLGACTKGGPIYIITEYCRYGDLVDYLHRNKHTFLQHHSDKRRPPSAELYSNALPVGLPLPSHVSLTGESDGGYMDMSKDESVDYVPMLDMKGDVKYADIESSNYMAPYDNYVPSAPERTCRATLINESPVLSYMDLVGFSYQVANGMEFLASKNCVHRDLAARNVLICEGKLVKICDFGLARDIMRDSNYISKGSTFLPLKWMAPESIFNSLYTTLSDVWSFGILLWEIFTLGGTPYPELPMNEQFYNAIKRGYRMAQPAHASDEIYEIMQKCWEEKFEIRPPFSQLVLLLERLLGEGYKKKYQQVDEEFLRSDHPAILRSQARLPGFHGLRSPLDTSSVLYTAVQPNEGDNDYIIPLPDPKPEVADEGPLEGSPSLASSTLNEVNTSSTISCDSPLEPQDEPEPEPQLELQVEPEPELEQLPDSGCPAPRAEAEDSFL
Sequence of Structural maintenance of chromosomes protein 2 (O95347 whole entry): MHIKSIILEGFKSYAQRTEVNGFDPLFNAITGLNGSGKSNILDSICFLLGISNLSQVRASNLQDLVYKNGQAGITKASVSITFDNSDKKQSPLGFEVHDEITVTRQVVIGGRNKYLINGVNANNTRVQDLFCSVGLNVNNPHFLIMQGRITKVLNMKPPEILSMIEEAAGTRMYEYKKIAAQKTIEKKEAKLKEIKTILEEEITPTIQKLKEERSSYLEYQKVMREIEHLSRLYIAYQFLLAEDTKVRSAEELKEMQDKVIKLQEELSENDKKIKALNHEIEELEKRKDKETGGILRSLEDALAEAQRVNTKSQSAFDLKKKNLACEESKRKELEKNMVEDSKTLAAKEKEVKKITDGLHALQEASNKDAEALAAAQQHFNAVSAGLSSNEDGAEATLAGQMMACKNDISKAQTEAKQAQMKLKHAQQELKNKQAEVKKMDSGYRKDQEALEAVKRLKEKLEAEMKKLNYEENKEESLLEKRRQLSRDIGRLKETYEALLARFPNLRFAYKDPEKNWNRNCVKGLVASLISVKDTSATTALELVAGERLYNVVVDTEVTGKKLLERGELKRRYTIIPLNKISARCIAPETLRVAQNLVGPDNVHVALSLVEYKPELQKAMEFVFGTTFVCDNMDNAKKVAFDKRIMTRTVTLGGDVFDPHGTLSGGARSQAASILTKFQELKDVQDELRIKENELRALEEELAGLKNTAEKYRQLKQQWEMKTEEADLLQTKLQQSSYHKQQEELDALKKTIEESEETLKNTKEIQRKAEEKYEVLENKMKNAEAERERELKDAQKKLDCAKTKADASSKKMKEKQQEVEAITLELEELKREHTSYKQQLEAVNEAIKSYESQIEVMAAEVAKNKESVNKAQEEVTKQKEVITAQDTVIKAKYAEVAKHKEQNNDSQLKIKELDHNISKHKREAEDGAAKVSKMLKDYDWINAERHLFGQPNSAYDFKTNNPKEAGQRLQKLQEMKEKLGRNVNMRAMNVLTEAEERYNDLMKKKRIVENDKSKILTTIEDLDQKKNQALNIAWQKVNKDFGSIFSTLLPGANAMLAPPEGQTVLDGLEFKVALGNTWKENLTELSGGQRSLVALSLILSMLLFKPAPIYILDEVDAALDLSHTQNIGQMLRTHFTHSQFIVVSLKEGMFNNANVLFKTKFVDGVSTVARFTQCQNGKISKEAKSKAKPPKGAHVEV
Sequence of Tyrosine-protein kinase Fer (P16591 whole entry): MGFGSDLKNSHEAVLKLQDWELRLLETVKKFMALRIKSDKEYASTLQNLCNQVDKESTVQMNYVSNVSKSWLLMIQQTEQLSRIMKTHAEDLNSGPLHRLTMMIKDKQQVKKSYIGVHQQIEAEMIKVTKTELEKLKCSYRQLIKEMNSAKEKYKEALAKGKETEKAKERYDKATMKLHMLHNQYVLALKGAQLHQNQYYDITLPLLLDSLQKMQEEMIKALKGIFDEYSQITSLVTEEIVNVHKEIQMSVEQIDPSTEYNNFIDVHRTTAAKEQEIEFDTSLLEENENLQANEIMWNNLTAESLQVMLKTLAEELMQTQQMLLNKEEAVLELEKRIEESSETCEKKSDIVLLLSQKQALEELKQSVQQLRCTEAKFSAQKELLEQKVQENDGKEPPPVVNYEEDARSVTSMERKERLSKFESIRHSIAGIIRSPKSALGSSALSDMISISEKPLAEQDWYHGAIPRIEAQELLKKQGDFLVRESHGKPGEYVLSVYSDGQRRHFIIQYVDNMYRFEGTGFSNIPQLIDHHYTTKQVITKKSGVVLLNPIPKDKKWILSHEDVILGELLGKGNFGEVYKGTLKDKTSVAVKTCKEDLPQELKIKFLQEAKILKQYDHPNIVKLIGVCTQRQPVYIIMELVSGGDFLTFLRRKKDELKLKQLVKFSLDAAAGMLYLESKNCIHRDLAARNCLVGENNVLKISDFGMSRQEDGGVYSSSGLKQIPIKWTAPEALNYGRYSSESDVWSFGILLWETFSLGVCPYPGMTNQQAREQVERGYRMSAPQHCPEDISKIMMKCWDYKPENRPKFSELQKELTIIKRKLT
Sequence of Cyclin-dependent kinase 6 (Q00534 whole entry, canonical isoform): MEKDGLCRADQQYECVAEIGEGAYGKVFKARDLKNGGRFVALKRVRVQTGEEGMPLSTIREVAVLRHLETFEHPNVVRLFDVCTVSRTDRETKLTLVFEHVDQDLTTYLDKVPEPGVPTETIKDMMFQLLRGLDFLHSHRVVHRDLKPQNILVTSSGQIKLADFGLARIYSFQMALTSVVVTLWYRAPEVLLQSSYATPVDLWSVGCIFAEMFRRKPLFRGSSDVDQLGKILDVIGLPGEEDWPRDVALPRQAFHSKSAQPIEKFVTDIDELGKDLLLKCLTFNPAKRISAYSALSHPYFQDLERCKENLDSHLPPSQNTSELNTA
Sequence of Casein kinase I isoform delta (P48730 whole entry, canonical isoform): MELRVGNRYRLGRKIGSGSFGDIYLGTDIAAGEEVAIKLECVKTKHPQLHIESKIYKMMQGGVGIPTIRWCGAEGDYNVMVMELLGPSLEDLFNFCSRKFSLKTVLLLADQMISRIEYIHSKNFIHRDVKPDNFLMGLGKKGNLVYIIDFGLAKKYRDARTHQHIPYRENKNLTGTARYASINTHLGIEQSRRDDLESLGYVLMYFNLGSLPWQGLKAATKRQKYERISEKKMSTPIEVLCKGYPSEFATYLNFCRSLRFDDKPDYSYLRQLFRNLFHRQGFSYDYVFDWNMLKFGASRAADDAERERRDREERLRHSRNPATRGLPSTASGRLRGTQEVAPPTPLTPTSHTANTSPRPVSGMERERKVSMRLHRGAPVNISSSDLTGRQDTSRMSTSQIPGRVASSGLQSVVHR
Sequence of MAP/microtubule affinity-regulating kinase 3 (P27448 whole entry): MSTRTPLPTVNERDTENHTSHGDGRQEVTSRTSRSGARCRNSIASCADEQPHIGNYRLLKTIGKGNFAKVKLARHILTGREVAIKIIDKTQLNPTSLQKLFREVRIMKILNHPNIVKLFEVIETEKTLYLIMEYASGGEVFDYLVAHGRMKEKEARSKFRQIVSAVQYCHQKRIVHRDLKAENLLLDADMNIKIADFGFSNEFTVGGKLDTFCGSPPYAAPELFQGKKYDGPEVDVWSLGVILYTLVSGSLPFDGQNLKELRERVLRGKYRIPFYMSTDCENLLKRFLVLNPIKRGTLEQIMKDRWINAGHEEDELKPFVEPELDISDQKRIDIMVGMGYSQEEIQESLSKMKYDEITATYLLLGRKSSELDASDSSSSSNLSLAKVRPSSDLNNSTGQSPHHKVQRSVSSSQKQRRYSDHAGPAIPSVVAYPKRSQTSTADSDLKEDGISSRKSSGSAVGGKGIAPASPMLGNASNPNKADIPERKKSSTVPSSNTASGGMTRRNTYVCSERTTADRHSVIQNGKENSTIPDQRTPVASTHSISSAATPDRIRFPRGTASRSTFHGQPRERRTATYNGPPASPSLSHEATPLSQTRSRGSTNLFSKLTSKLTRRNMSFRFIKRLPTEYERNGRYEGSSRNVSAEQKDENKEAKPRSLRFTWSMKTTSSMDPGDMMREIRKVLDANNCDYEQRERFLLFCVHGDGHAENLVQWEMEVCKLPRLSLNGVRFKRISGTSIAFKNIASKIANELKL

As for `O[C@H]1CC[C@H](Nc2ncc3nc(Nc4c(F)cc(F)cc4F)n([C@H]4CCOC4)c3n2)CC1` [TANZISERTIB], the Kd in assay [1], in assay [2], in assay [3], in assay [4], in [5] and in assay [6] was > 30 µM (inactive) in each case. Further, the Kd in assay [7], in [8], in assay [9] and in [10] was > 30 µM (inactive) throughout.

In the case of `c1cc(OCCN2CCCCC2)cc(-c2n[nH]c3ccc(-c4nc[nH]n4)cc23)c1` [CC-401], the Kd in [1] is > 30 µM (inactive); in assay [2] it was 0.287 µM (active); in assay [3], > 30 µM (inactive); in [4], > 30 µM (inactive); in assay [11] it was > 30 µM (inactive); in assay [5], > 30 µM (inactive). Besides, the Kd in [6], in assay [7], in [8] and in assay [9] was > 30 µM (inactive) throughout.

On to `O=C(Nc1ccc(OC(F)(F)F)cc1)c1sccc1NCc1ccnc2ccccc12` [OSI-930], for which the Kd in [1], in [2], in assay [3], in assay [4], in assay [11] and in assay [5] was > 30 µM (inactive) each time. The Kd in assay [6], in [7], in assay [8] and in assay [9] was > 30 µM (inactive) in each case.

Turning to `CNC(=O)c1ccc(Nc2ncc(C(F)(F)F)c(NCc3nccnc3N(C)S(C)(=O)=O)n2)cc1` [DEFACTINIB], the Kd is > 30 µM (inactive) in assay [2]; > 30 µM (inactive) in assay [3]; 1.3 µM (active) in assay [4]; 4.49 µM (active) in assay [5]; > 30 µM (inactive) in assay [6]; > 30 µM (inactive) in [7]. Further, the Kd in [8], in [9] and in assay [10] was > 30 µM (inactive) each time.

Turning to `N#CCNC(=O)c1ccc(-c2ccnc(Nc3ccc(N4CCOCC4)cc3)n2)cc1` [MOMELOTINIB], the Kd in [1] was 3.36 µM; in assay [2], > 30 µM (inactive); in assay [3], > 30 µM (inactive); in [4], > 30 µM (inactive); in assay [11], > 30 µM (inactive); in assay [6] it was > 30 µM (inactive). Moreover, the Kd in [7], in [8], in assay [9] and in [10] was > 30 µM (inactive) in each case.

With `CCc1nc(C(N)=O)c(Nc2ccc(N3CCC(N4CCN(C)CC4)CC3)c(OC)c2)nc1NC1CCOCC1` [GILTERITINIB], the Kd in assay [1], in assay [2], in assay [3], in [11], in [5] and in assay [6] was > 30 µM (inactive) throughout. The equilibrium dissociation constant (Kd) was 0.51 µM (active) in assay [7], > 30 µM (inactive) in [8], > 30 µM (inactive) in [9] and > 30 µM (inactive) in assay [10].

Regarding `O=S(=O)(c1cccc2cnccc12)N1CCCNCC1` [FASUDIL], the Kd in assay [1], in assay [3], in assay [4], in [11], in [5] and in assay [6] was > 30 µM (inactive) throughout. Also, the Kd in [7], in assay [8], in [9] and in assay [10] was > 30 µM (inactive) each time.

`Cc1cc(-c2cc(OC(=O)c3ccccc3)ccc2Cl)cc2nnc(Nc3ccc(OCCN4CCCC4)cc3)nc12` [TG100-801]: the Kd in [1], in assay [2], in assay [3], in assay [4], in assay [5] and in assay [6] was > 30 µM (inactive) each time. Moreover, the Kd in assay [7] is 0.109 µM (active); in [8], > 30 µM (inactive); in [9], > 30 µM (inactive).

On to `Cc1cc(Nc2nc(N[C@@H](C)c3ncc(F)cn3)ncc2Cl)n[nH]1` [AZD-1480], for which the Kd in assay [1] was > 30 µM (inactive); in assay [2] it was > 30 µM (inactive); in assay [3] it was > 30 µM (inactive); in [4], 0.517 µM (active); in assay [11], > 30 µM (inactive); in assay [5], > 30 µM (inactive). Also, the Kd in assay [6], in assay [7], in assay [8] and in [9] was > 30 µM (inactive) throughout.

`CC(C)CC(=O)Nc1[nH]nc2c1CN(C(=O)C1CCN(C)CC1)C2(C)C` [PHA-793887]: the Kd in [1], in assay [2], in assay [3], in assay [11], in assay [5] and in assay [6] was > 30 µM (inactive) throughout. Further, the Kd in assay [7], in assay [8], in [9] and in assay [10] was > 30 µM (inactive) in each case.

As to `O=C(NOC[C@H](O)CO)c1ccc(F)c(F)c1Nc1ccc(I)cc1F` [MIRDAMETINIB], the Kd in [1], in assay [2], in assay [3], in [4], in assay [11] and in assay [5] was > 30 µM (inactive) each time. Also, the Kd in assay [6], in [7], in [8] and in assay [9] was > 30 µM (inactive) throughout.

The record behind these values is ChEMBL document CHEMBL3991601, “The target landscape of clinical kinase drugs” (Science, 2017).
